Values of other authors, collected in paper PMC4338372 (FEBS Open Bio, 2015).

System: Src family kinase
Conditions: macrophages; inhibition of Src family kinase

SMILES: CC(C)(C)n1nc(-c2ccc(Cl)cc2)c2c(N)ncnc21 [PP2]
- phagocytosis efficiency: decreases phagocytosis efficiency in macrophages
